# Data published in PubChem BioAssay (NCI).
#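 Where inhibition never reached the appropriate level, the endpoint shown equals the highest concentration tested. Otherwise, values were interpolated linearly from a five-concentration, 48-hour dose response in 96-well plates. At the GI50, growth is halved. The concentration for full growth arrest is given as TGI.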
# Columns and labels:
# Experiment in all cases: growth of human tumour cells (NCI), 48 h
# 786-0 renal = tested on: 786-0 renal
# A498 renal = tested on: A498 renal
# ACHN renal = tested on: ACHN renal
# BT-549 breast = tested on: BT-549 breast
# CAKI-1 renal = tested on: CAKI-1 renal
# CCRF-CEM leukemia = tested on: CCRF-CEM leukemia
# DU-145 prostate = tested on: DU-145 prostate
# EKVX NSCLC = tested on: EKVX NSCLC
# HCC-2998 colon = tested on: HCC-2998 colon
# HCT-116 colon = tested on: HCT-116 colon
# HCT-15 colon = tested on: HCT-15 colon
# HL-60(TB) leukemia = tested on: HL-60(TB) leukemia
# HOP-92 NSCLC = tested on: HOP-92 NSCLC
# HS 578T breast = tested on: HS 578T breast
# IGROV1 ovarian = tested on: IGROV1 ovarian
# K-562 leukemia = tested on: K-562 leukemia
# KM12 colon = tested on: KM12 colon
# LOX IMVI melanoma = tested on: LOX IMVI melanoma
# M14 melanoma = tested on: M14 melanoma
# MALME-3M melanoma = tested on: MALME-3M melanoma
# MCF7 breast = tested on: MCF7 breast
# MDA-MB-231 breast = tested on: MDA-MB-231 breast
# MDA-MB-435 = tested on: MDA-MB-435
# MOLT-4 leukemia = tested on: MOLT-4 leukemia
# NCI-H23 lung = tested on: NCI-H23 lung
# NCI-H460 lung = tested on: NCI-H460 lung
# NCI-H522 lung = tested on: NCI-H522 lung
# NCI/ADR-RES ovarian = tested on: NCI/ADR-RES ovarian
# OVCAR-3 ovarian = tested on: OVCAR-3 ovarian
# OVCAR-4 ovarian = tested on: OVCAR-4 ovarian
# OVCAR-5 ovarian = tested on: OVCAR-5 ovarian
# OVCAR-8 ovarian = tested on: OVCAR-8 ovarian
# PC-3 prostate = tested on: PC-3 prostate
# RPMI-8226 leukemia = tested on: RPMI-8226 leukemia
# RXF 393 renal = tested on: RXF 393 renal
# SF-268 CNS = tested on: SF-268 CNS
# SF-295 CNS = tested on: SF-295 CNS
# SF-539 CNS = tested on: SF-539 CNS
# SK-MEL-2 melanoma = tested on: SK-MEL-2 melanoma
# SK-MEL-28 melanoma = tested on: SK-MEL-28 melanoma
# SK-MEL-5 melanoma = tested on: SK-MEL-5 melanoma
# SN12C renal = tested on: SN12C renal
# SNB-19 CNS = tested on: SNB-19 CNS
# SNB-75 CNS = tested on: SNB-75 CNS
# SR leukemia = tested on: SR leukemia
# SW-620 colon = tested on: SW-620 colon
# TK-10 renal = tested on: TK-10 renal
# U251 CNS = tested on: U251 CNS
# UACC-257 melanoma = tested on: UACC-257 melanoma
# UACC-62 melanoma = tested on: UACC-62 melanoma
# UO-31 renal = tested on: UO-31 renal
smiles,measurement,setting,value
CN1CCN(CCOc2ccc(-c3cnc4c(-c5cccc(F)c5F)cnn4c3)cc2)CC1,GI50,786-0 renal,1630 nM
same,TGI,786-0 renal,3070 nM
same,GI50,A498 renal,5410 nM
same,TGI,A498 renal,19700 nM
same,GI50,ACHN renal,1620 nM
same,TGI,ACHN renal,2970 nM
same,GI50,BT-549 breast,1570 nM
same,TGI,BT-549 breast,3150 nM
same,GI50,CAKI-1 renal,1520 nM
same,TGI,CAKI-1 renal,2910 nM
same,GI50,CCRF-CEM leukemia,1550 nM
same,TGI,CCRF-CEM leukemia,3810 nM
same,GI50,DU-145 prostate,1690 nM
same,TGI,DU-145 prostate,3440 nM
same,GI50,EKVX NSCLC,1590 nM
same,TGI,EKVX NSCLC,3750 nM
same,GI50,HCC-2998 colon,11700 nM
same,TGI,HCC-2998 colon,24700 nM
same,GI50,HCT-116 colon,1660 nM
same,TGI,HCT-116 colon,3040 nM
same,GI50,HCT-15 colon,1480 nM
same,TGI,HCT-15 colon,2910 nM
same,GI50,HL-60(TB) leukemia,1910 nM
same,TGI,HL-60(TB) leukemia,3790 nM
same,GI50,HOP-92 NSCLC,4140 nM
same,TGI,HOP-92 NSCLC,26400 nM
same,GI50,HS 578T breast,1910 nM
same,TGI,HS 578T breast,4740 nM
same,GI50,IGROV1 ovarian,1610 nM
same,TGI,IGROV1 ovarian,3270 nM
same,GI50,K-562 leukemia,1660 nM
same,TGI,K-562 leukemia,3530 nM
same,GI50,KM12 colon,1720 nM
same,TGI,KM12 colon,3390 nM
same,GI50,LOX IMVI melanoma,1800 nM
same,TGI,LOX IMVI melanoma,3340 nM
same,GI50,M14 melanoma,1710 nM
same,TGI,M14 melanoma,3200 nM
same,GI50,MALME-3M melanoma,1530 nM
same,TGI,MALME-3M melanoma,3010 nM
same,GI50,MCF7 breast,1320 nM
same,TGI,MCF7 breast,2950 nM
same,GI50,MDA-MB-231 breast,1600 nM
same,TGI,MDA-MB-231 breast,3360 nM
same,GI50,MDA-MB-435,1680 nM
same,TGI,MDA-MB-435,3070 nM
same,GI50,MOLT-4 leukemia,1600 nM
same,TGI,MOLT-4 leukemia,3530 nM
same,GI50,NCI-H23 lung,1700 nM
same,TGI,NCI-H23 lung,3330 nM
same,GI50,NCI-H460 lung,1670 nM
same,TGI,NCI-H460 lung,3190 nM
same,GI50,NCI-H522 lung,1590 nM
same,TGI,NCI-H522 lung,3270 nM
same,GI50,NCI/ADR-RES ovarian,2210 nM
same,TGI,NCI/ADR-RES ovarian,5490 nM
same,GI50,OVCAR-3 ovarian,1710 nM
same,TGI,OVCAR-3 ovarian,3420 nM
same,GI50,OVCAR-4 ovarian,1280 nM
same,TGI,OVCAR-4 ovarian,2950 nM
same,GI50,OVCAR-5 ovarian,1990 nM
same,TGI,OVCAR-5 ovarian,4430 nM
same,GI50,OVCAR-8 ovarian,2100 nM
same,TGI,OVCAR-8 ovarian,5260 nM
same,GI50,PC-3 prostate,1960 nM
same,TGI,PC-3 prostate,5640 nM
same,GI50,RPMI-8226 leukemia,1450 nM
same,TGI,RPMI-8226 leukemia,4010 nM
same,GI50,RXF 393 renal,1690 nM
same,TGI,RXF 393 renal,3490 nM
same,GI50,SF-268 CNS,2150 nM
same,TGI,SF-268 CNS,5240 nM
same,GI50,SF-295 CNS,1800 nM
same,TGI,SF-295 CNS,3330 nM
same,GI50,SF-539 CNS,1740 nM
same,TGI,SF-539 CNS,3170 nM
same,GI50,SK-MEL-2 melanoma,15500 nM
same,TGI,SK-MEL-2 melanoma,31000 nM
same,GI50,SK-MEL-28 melanoma,1770 nM
same,TGI,SK-MEL-28 melanoma,3260 nM
same,GI50,SK-MEL-5 melanoma,1670 nM
same,TGI,SK-MEL-5 melanoma,3070 nM
same,GI50,SN12C renal,2080 nM
same,TGI,SN12C renal,4670 nM
same,GI50,SNB-19 CNS,1910 nM
same,TGI,SNB-19 CNS,3880 nM
same,GI50,SNB-75 CNS,1410 nM
same,TGI,SNB-75 CNS,2730 nM
same,GI50,SR leukemia,282 nM
same,TGI,SR leukemia,1160 nM
same,GI50,SW-620 colon,1860 nM
same,TGI,SW-620 colon,3590 nM
same,GI50,TK-10 renal,2010 nM
same,TGI,TK-10 renal,3620 nM
same,GI50,U251 CNS,1440 nM
same,TGI,U251 CNS,2940 nM
same,GI50,UACC-257 melanoma,1770 nM
same,TGI,UACC-257 melanoma,3490 nM
same,GI50,UACC-62 melanoma,1840 nM
same,TGI,UACC-62 melanoma,3610 nM
same,GI50,UO-31 renal,1250 nM
same,TGI,UO-31 renal,2550 nM
